In series [1] the test system is IAV. Description: Viral aggregation by electron microscopy. Details: species or system influenza A virus. As to conditions: 2 or 8μg/ml of peptide; LPS control 10 EU/ml; representative of 3 experiments; Fig 2C.
Series [2] relates to human neutrophils. Description: IAV uptake by neutrophils (flow cytometry). Format: cell-based. The following applies: FITC-IAV (Phil82) treated with peptide 30 min at 37°C, then neutrophils 45 minutes at 37°C, trypan blue quench, 5 experiments, separate donors. (In general: Flow cytometry measures light scatter and fluorescence of single cells or particles in a stream.)
The subject of series [3] is Escherichia coli (E.coli). Description: Aggregation of rhodamine labeled E.coli (fluorescent microscopy). As to conditions: rhodamine E. coli preincubated with 50ug/ml peptide for 1 hour at 37°C, fluorescent microscope; three experiments; Fig 6.
The test system of series [4] is Philippines 82/H3N2 (Phil82) influenza A virus. Format: cell-based.
The subject of series [5] is IAV. Kind of series: Confocal microscopy of Alexa Fluor 594 labeled IAV on MDCK cells. It is filed as cell-based, influenza A virus. As to conditions: Alexa Fluor 594 labeled IAV pre-incubated with peptide 30 minutes at 37°C, then MDCK cells 45 min; 3 experiments; Fig 3.
For series [6], the system named is human neutrophils. Description: Neutrophil uptake of rhodamine labeled E.coli. It is filed as cell-based. As to conditions: for Neutrophil uptake of E.coli: rhodamine labeled E.coli pre-incubated with peptide, flow cytometry, 5 experiments, separate donors, Fig 7.
Series [7] relates to human neutrophils. It is filed as cell-based. The following applies: compared to IAV alone, 5 experiments.
Series [8] concerns IAV. Description: Viral aggregation by light absorbance at 350 nm. Also on record: species or system influenza A virus. The following applies: for Aggregation of IAV particles (light transmission at 350nm): dilute suspension of IAV, Fig 2A and 2B (8 and 16μg/ml).
Details of series [9]: method as in PMID 24449257. As to conditions: simulation kinetics and energetics, compared with βA 35–40 and βA37-42; cited from earlier work.

Entries after “also recorded” stand apart in the source; their conditions may differ.

As to “EDVGSNKGAIIGLMVGGVV [βA22-40, βA fragment of residues 22-40, obtained from Genscript]”, in the series on IAV [1], the “Viral aggregation by electron microscopy” value is given as “did not”. In the series with human neutrophils [2] (Fig 4), the “Neutrophil uptake of IAV” value is reported as “lacked activity”. In addition, in series [3], the “Aggregation of fluorescent E.coli” value is on record as “did not”. Moreover, the “Inhibition of IAV infectivity (neutralization)” value (“Inhibition of IAV infectivity” below) in [4] is “no or minimal antiviral activity”. Besides, the “Viral aggregates visible by confocal microscopy” value in the series on IAV [5] was “not”. Further, in the series on human neutrophils [6], the “Neutrophil uptake of E.coli” value is recorded as “slight but significantly increased uptake at the highest concentration tested”.
Consider “EDVGSNKGAIIGLMVGGVVIA [βA22-42, βA fragment of residues 22-42, obtained from Genscript]”, for which the “Neutrophil H2O2 formation in response to IAV, 16μg/ml” value with human neutrophils [7] (IAV pre-incubated with 16μg/ml peptide, Fig 5A) was “increased H2O2 formation as compared to IAV alone”. In addition, the “Viral aggregation by electron microscopy” value in the series on IAV [1] is given as “marked viral aggregation”. The “Neutrophil uptake of IAV” value in the series on human neutrophils [2] (Fig 4) was “greater increases than βA1-42”; in the series on human neutrophils [2] (Fig 4, listed as 22–42) it was “had the ability to increase viral uptake”. In addition, in the series with IAV [8] (16μg/ml of βA peptides, Fig 2B), the “Aggregation of IAV (light transmission at 350nm), 16μg/ml” value is “statistically significant aggregation”. Also, the “Aggregation of IAV particles (light transmission at 350nm)” value in the series with IAV [8] was “highest activity in this assay”; with IAV [8] (listed as 22–42), “caused aggregation of IAV particles”. Moreover, in [3], the “Aggregation of fluorescent E.coli” value is recorded as “caused aggregation”. Moreover, the “Inhibition of IAV infectivity” value in series [4] is “significantly inhibited infectivity”. The “Viral aggregates visible by confocal microscopy” value in the series on IAV [5] was “Aggregates were visible; also recorded: Aggregates were apparent”. Further, the “Neutrophil uptake of E.coli” value in the series with human neutrophils [6] was “marked increase in uptake”.
Turning to “GLMVGGVV [βA33-40, βA fragment of residues 33-40, obtained from Genscript]”, in the series on human neutrophils [2] (Fig 4), the “Neutrophil uptake of IAV” value is “lacked activity”. Also, the “Inhibition of IAV infectivity” value in series [4] is “no or minimal antiviral activity”. Further, in the series with human neutrophils [6], the “Neutrophil uptake of E.coli” value was “No significant effects”.
Turning to “MVGGVVIA [βA35-42, 8 amino acid βA fragment of residues 35-42, obtained from Genscript]”, the “Neutrophil H2O2 production in response to IAV” value in the series on human neutrophils [7] (IAV pre-incubated with peptide, Fig 5B) is “did not increase H2O2 production”. Moreover, the “Neutrophil uptake of IAV” value with human neutrophils [2] (Fig 4) is “increased uptake at the highest concentration tested”. The “Aggregation of IAV particles (light transmission at 350nm)” value with IAV [8] was “caused aggregation of IAV particles”. In addition, the “Propensity to assemble into unorganized oligomers” value in [9] is “increased propensity”. In addition, in series [4], the “Inhibition of IAV infectivity” value is recorded as “significantly inhibited infectivity”. The “Neutrophil uptake of E.coli, 32μg/ml” value in the series on human neutrophils [6] (32μg/ml peptide, Fig 7A) was “some increase in E.coli uptake”.
